Test results as given in patent US8338422B2, “Indolin-2-ones and aza-indolin-2-ones” (Janssen Pharmaceutica NV, priority 2007, dated 2012).

Legend:
AuroraB (h) = AuroraB (h) (Homo sapiens, UniProt Q96GD4); assay: Aurora-B human kinase assay (SPA); format: biochemical; details: for IC50: read-out: AuroraB pIC50 (converted)
In short: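 33P-phosphorylated biotin-substrate captured on streptavidin PVT SPA beads after EDTA-containing stop and imaged on Leadseeker. Reaction: 60 min at room temperature, Hepes pH 7.5 with Mg2+/Mn2+. Conditions: 0.5 μM ATP plus 2.2 nM [γ-33P]ATP, 3 μM substrate, 0.5 μg/ml human AuroraB.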

GSK3β (h) = GSK3β (h) (Homo sapiens, UniProt P49841); assay: GSK-3β human kinase assay (SPA); format: biochemical; details: for IC50: read-out: GSK3B pIC50 (converted)
GSK3β (h), sequence (P49841 whole entry): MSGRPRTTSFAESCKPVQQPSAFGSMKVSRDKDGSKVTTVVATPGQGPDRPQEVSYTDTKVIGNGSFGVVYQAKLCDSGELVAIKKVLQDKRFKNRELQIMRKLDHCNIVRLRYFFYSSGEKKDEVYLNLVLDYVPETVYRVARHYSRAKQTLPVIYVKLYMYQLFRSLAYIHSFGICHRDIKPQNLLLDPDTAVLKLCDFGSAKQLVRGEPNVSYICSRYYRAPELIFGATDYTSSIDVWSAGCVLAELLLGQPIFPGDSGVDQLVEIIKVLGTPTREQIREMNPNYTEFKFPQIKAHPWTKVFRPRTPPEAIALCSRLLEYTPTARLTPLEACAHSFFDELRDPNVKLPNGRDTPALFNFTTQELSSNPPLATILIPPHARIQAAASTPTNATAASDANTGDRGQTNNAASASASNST
In short: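 Radiometric SPA read-out: after EDTA stop, biotinylated 33P-labelled peptide bound streptavidin PVT beads and was imaged on Leadseeker. Reaction: 60 min, room temperature, GSK3β (h) at 1 μg/ml, 1 μM substrate peptide, 1 μM ATP with 2 nM [γ-33P]ATP, Tris pH 7.4/MgCl2/DTT buffer.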

SKOV3 = assay: Cellular proliferation assay (Alamar blue), SKOV3; format: cell-based; details: 72 hours with compound, 10% FCS; for IC50: Homo sapiens, SK-OV-3, SKOV3 cells, read-out: pIC50 SKOV3 (converted); for pIC50 SKOV3: SKOV3 cells
Method: […] functional properties of these compounds was tested in cellular proliferation assays on a panel of different cell lines in the presence of 10% FCS serum (37° C. and 5% (v/v) CO2). In a first step these cells were seeded and incubated for 24 hours in the absence of compound. In the second step the cells were incubated for 72 hours with the compounds to be tested for 72 hours. The viable cell number was finally assessed in a standard Alamar blue cell viability assay.
The viable cell number was assessed by incubation for either 4 h (HCT-116, H1299, H460) 6 h (SKOV3, HT29, U87-MG, Colo205) or 24 h (A2780, PC3, MDA-MB-231, A549, MCF-7) with Alamar blue (Resazurin 9 μg/ml, K-Ferrocyanide 90 μM K-Ferricyanide 90 μM) and the converted fluorescent product was quantified on a fluorescent plate readed (544 nm/590 nm). Effect of the compounds is calculated as of on control cells.

MDA/MB231 = assay: Cellular proliferation assay (Alamar blue), MDA/MB231; format: cell-based; details: MDA/MB231 cells, 72 hours with compound, 10% FCS; for IC50: Homo sapiens, MDA-MB-231, 72 h, read-out: pIC50 MDA/MB231 (converted)
In short: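 Cells in 10% FCS were seeded and left 24 h without compound, then treated for 72 h at 37° C. Viability read with Alamar blue (resazurin 9 μg/ml, ferro-/ferricyanide 90 μM each), incubated 4 h for H460 and 24 h for MDA-MB-231; fluorescence 544/590 nm, effect relative to control cells.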

HCT-116 = assay: Cellular proliferation assay (Alamar blue), HCT-116; format: cell-based; details: HCT-116 cells, 72 hours with compound, 10% FCS; for IC50: Homo sapiens, HCT-116, 72 h, read-out: pIC50 HCT-116 (converted)
In short: (§1)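 Proliferation was assessed over 72 h of compound treatment, following 24 h of seeding without compound, under 10% FCS, 37° C. and 5% CO2. Fluorescent resazurin product was measured and compared with control cells.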

PLK4 (h) = PLK4 (h) (Homo sapiens, UniProt O00444); assay: PLK-4 human kinase assay (SPA); format: biochemical; details: for IC50: read-out: PLK4 pIC50 (converted)
PLK4 (h), sequence (O00444 whole entry): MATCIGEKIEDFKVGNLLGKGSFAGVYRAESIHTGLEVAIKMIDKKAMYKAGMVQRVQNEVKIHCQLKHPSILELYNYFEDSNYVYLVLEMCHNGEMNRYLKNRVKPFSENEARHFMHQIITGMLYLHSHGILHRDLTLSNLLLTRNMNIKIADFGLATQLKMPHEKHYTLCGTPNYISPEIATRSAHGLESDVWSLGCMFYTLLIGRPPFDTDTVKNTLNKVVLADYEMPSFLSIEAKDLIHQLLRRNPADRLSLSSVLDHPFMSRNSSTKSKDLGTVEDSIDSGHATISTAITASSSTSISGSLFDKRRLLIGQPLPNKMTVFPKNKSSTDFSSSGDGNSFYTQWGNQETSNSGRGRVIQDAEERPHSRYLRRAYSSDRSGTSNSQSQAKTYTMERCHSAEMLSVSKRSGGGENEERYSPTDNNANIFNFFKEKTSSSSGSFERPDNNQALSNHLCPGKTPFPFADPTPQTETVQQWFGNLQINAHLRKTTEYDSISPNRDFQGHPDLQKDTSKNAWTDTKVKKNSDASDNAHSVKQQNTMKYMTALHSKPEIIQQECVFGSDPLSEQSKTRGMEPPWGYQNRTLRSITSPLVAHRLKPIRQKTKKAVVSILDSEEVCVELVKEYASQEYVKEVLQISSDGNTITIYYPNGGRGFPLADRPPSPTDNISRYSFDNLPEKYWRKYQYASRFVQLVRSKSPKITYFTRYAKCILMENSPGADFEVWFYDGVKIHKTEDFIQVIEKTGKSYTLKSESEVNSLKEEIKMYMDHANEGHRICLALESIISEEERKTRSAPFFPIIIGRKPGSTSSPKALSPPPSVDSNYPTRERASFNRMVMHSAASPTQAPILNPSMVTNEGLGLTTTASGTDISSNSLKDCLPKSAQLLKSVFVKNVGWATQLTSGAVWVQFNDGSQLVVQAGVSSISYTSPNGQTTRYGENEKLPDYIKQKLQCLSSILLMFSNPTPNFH
In short: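 Radiometric readout: 33P-labelled peptide captured on streptavidin SPA beads after EDTA stop, imaged by Leadseeker. Reaction ran 60 min at room temperature in Hepes pH 8.0 buffer. It contained 1 μM ATP with 2 nM [γ-33P]ATP, 10 μM biotinylated peptide and PLK4 (h) at 19 μg/ml.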

U87MG = assay: Cellular proliferation assay (Alamar blue), U87MG; format: cell-based; details: U87MG cells, 72 hours with compound, 10% FCS; for IC50: Homo sapiens, U-87 MG, 72 h, read-out: pIC50 U87MG (converted)
In short: as §1

A2780 = assay: Cellular proliferation assay (Alamar blue), A2780; format: cell-based; details: A2780 cells, 72 hours with compound, 10% FCS; for IC50: Homo sapiens, A2780, 72 h, read-out: pIC50 A2780 (converted)
In short: as §1

CDK1/CyclinB (h) = CDK1/CyclinB (h) (Homo sapiens, UniProt P06493); assay: CDK1/CyclinB human kinase assay (FRET); format: biochemical; details: for IC50: read-out: CDK1 pIC50 (converted)
CDK1/CyclinB (h), sequence (P06493 whole entry): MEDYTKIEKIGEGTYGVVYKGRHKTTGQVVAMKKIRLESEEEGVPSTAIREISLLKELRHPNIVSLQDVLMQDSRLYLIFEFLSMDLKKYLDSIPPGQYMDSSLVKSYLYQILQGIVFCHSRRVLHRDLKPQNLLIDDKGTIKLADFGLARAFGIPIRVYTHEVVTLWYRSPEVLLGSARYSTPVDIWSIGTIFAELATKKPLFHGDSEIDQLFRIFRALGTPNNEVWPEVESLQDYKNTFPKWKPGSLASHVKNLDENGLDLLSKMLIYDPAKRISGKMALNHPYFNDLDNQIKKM
CDK1/CyclinB (h), sequence (P14635 whole entry partner): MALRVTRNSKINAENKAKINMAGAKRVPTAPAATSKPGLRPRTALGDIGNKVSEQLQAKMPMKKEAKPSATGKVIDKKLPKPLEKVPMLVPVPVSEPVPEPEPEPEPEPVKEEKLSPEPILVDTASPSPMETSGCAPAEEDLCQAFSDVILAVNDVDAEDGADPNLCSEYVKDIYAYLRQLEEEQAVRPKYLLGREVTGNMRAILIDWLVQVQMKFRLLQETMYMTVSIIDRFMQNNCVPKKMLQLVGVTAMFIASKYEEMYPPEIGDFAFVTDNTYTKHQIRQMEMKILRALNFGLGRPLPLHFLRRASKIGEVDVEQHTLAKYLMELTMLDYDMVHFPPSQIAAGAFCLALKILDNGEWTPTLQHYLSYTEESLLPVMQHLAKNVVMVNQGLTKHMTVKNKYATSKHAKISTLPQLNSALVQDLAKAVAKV
In short: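 Kinase activity was read as the 460/538 nm emission ratio after protease cleavage of unphosphorylated peptide (60 min development). The reaction ran 60 min at room temperature with 10 μM ATP, 2 μM Ser/Thr peptide 12 and 0.2 μg/ml enzyme in Hepes pH 7.5 buffer with MgCl2, EGTA, Brij-35.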

H1299 = assay: Cellular proliferation assay (Alamar blue), H1299; format: cell-based; details: H1299 cells, 72 hours with compound, 10% FCS; for IC50: Homo sapiens, NCI-H1299, 72 h, read-out: pIC50 H1299 (converted)
In short: as §1

PC-3 = assay: Cellular proliferation assay (Alamar blue), PC-3; format: cell-based; details: PC-3 cells, 72 hours with compound, 10% FCS; for IC50: Homo sapiens, PC-3, 72 h, read-out: pIC50 PC-3 (converted)
In short: as §1

AuroraB (h), sequence (Q96GD4 whole entry): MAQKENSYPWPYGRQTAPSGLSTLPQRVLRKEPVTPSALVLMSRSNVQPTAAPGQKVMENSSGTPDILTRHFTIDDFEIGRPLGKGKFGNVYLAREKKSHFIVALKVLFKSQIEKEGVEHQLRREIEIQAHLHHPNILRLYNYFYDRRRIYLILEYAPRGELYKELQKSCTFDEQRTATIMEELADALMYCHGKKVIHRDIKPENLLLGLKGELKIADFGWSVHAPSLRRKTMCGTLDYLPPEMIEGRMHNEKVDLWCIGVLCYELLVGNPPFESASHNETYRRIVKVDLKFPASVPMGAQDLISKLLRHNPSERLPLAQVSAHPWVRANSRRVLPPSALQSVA

Structure (SMILES)	IC50 (AuroraB (h)) [µM]	IC50 (GSK3β (h)) [µM]	IC50 (SKOV3) [µM]	IC50 (HCT-116) [µM]	IC50 (PLK4 (h)) [µM]	IC50 (U87MG) [µM]	IC50 (A2780) [µM]	IC50 (CDK1/CyclinB (h)) [µM]	IC50 (H1299) [µM]	IC50 (PC-3) [µM]	IC50 (MDA/MB231) [µM]	AuroraB pIC50 (AuroraB (h))	GSK3B pIC50 (GSK3β (h))	pIC50 MDA/MB231 (MDA/MB231)	PLK4 pIC50 (PLK4 (h))	pIC50 U87MG (U87MG)	pIC50 A2780 (A2780)	CDK1 pIC50 (CDK1/CyclinB (h))	pIC50 H1299 (H1299)	pIC50 PC-3 (PC-3)	other results
CN1CCN(c2ccc3cc2CN(C)CCCCC(=O)N(C)CCCNc2ncnc4c2/C(=C/N3)C(=O)N4)CC1 [Compound 122]	> 10	0.575	8.32		0.851	0.708	0.288	4.68	1.2	7.94	1.95										
CN1CCCNc2ncnc3c2C(=CNc2ccc(N4CCOCC4)c(c2)OCCCCC1=O)C(=O)N3 (mixture of isomers) [Compound 121]												6.15	7.45	5.20	7.22	6.66	6.48	6.24	6.32	5.19	pIC50 SKOV3 (SKOV3): 5.78; pIC50 HCT-116 (HCT-116): 5.99
CN1CCN(c2ccc3cc2CN(C)CCCCCC(=O)N(C)CCCNc2ncnc4c2C(=CN3)C(=O)N4)CC1 (mixture of isomers) [Compound 117]												<5	5.58	5.06	6.5	5.55	5.63	<5	5.15	<5	pIC50 SKOV3 (SKOV3): <5
CN1CCCNc2ncnc3c2C(=CNc2ccc(N4CCOCC4)c(c2)OCCCCCC1=O)C(=O)N3 (mixture of isomers) [Compound 120]												5.58	6.73	5.03	6.67	5.99	5.95	5.86	5.68	<5	pIC50 SKOV3 (SKOV3): 5.02; pIC50 HCT-116 (HCT-116): 5.38
COc1cc2cc(c1OC)OCCCCC(=O)N(C)CCNc1ncnc3c1C(=CN2)C(=O)N3 (mixture of isomers) [Compound 129]												5.26	<5	<5	5.71	5.42	<5	<5	5.65	<5	pIC50 HCT-116 (HCT-116): <5
COc1cc2cc(c1OC)OCCCC(=O)NCCCNc1ncnc3c1C(=CN2)C(=O)N3 (mixture of isomers) [Compound 147]												6.6	6.5	<5	6.95	5.35	5.37	6.91	5.97	5.42	pIC50 HCT-116 (HCT-116): 5.90
CN1CCN(c2ccc3cc2CN(C)CCCCCC(=O)N(C)CCNc2ncnc4c2/C(=C/N3)C(=O)N4)CC1 [Compound 126]	> 10	3.89		> 10	0.676	6.31	> 10	> 10	> 10	> 10	> 10										
COc1ccc2cc1OCCCC(=O)N(C(C)C)CCCNc1ncnc3c1C(=CN2)C(=O)N3 (mixture of isomers) [Compound 144]												7.25	7.32	5.92	7.03	5.89	5.87	6.12	6.56	6.14	pIC50 HCT-116 (HCT-116): 6.32

Now from value to molecule, other results behind:

IC50 (AuroraB (h)) [µM]	IC50 (GSK3β (h)) [µM]	IC50 (SKOV3) [µM]	IC50 (HCT-116) [µM]	IC50 (PLK4 (h)) [µM]	IC50 (U87MG) [µM]	IC50 (A2780) [µM]	IC50 (CDK1/CyclinB (h)) [µM]	IC50 (H1299) [µM]	IC50 (PC-3) [µM]	Structure (SMILES)	IC50 (MDA/MB231) [µM]	AuroraB pIC50 (AuroraB (h))	GSK3B pIC50 (GSK3β (h))	pIC50 MDA/MB231 (MDA/MB231)	PLK4 pIC50 (PLK4 (h))	pIC50 U87MG (U87MG)	pIC50 A2780 (A2780)	CDK1 pIC50 (CDK1/CyclinB (h))	pIC50 H1299 (H1299)	pIC50 PC-3 (PC-3)	other results
> 10	> 10	> 10	> 10	> 10	> 10	> 10	> 10	> 10	> 10	COc1cc2cc(c1OC)CN(C)CC(=O)N(C)CCNc1ncnc3c1/C(=C/N2)C(=O)N3 [Compound 123]	> 10										
> 10	> 10	> 10	> 10	> 10	> 10	> 10	> 10	> 10	> 10	COc1cc2cc(c1OC)CN(C)CCCC(=O)N(C)CCNc1ncnc3c1/C(=C/N2)C(=O)N3 [Compound 118]	> 10										
> 10	3.09	> 10	6.46	5.89	3.24	3.72	> 10	9.77	> 10	CN1CCN(c2ccc3cc2CN(C)CCCC(=O)N(C)CCNc2ncnc4c2/C(=C/N3)C(=O)N4)CC1 [Compound 116]	5.25										
> 10	> 10	> 10		7.41	> 10	2.57	6.31	> 10	> 10	COc1cc2cc(c1OC)CN(C)CCCCC(=O)N(C)CCNc1ncnc3c1/C(=C/N2)C(=O)N3 [Compound 119]	> 10										
> 10	> 10		0.912	0.417	> 10	> 10	> 10	> 10	> 10	COc1cc2cc(c1OC)OCCCC(=O)N(C)CCNc1ncnc3c1/C(=C/N2)C(=O)N3 [Compound 132]	> 10										
